According to US12371441B2, “Siderophore cephalosporin conjugates and uses thereof” (ARIVA MED GMBH, priority 2019, dated 2025):
Converted amounts (≈) assume the structure as drawn. Like-named read-outs stand apart in the source and are kept apart here.

Tests used:
[1] = system: Escherichia coli ATCC 25922; assay: MIC by standard broth microdilution (CLSI), Escherichia coli; assay type: cell-based
Experimental: (§1) The in vitro activity against bacteria was determined by standard broth microdilution according to the Clinical and Laboratory Standards Institute CLSI document (Performance Standards for Antimicrobial Susceptibility Testing) M100Ed29E (2019) and (Methods for Dilution Antimicrobial Susceptibility Test for Bacteria That Grow Aerobically) M07Ed11 (2018). The data were obtained using cation-adjusted Mueller Hinton broth medium (CAMHB), and additionally iron-depleted CAMHB medium (ID-CAMHB) for compounds with iron-chelating activity.

[2] = system: Klebsiella pneumoniae ATCC 43816; assay: MIC by standard broth microdilution (CLSI), Klebsiella pneumoniae; assay type: cell-based
Experimental: as §1

[3] = system: Burkholderia cepacia CF and non-CF isolates, n = 5; assay: MIC by standard broth microdilution (CLSI), Burkholderia cepacia isolates; assay type: cell-based
Experimental: as §1

[4] = Chromeazurol assay (iron-chelating property); assay type: physicochemical; settings: for IC50: absorbance at 630 nm
Experimental: The iron-chelating property was determined by the chromeazurol assay according to Schwyn B., et al, Universal Chemical Assay for the Detection and Determination of Siderophores, 1987. Analytical Biochemistry 160: 47-56. The assay uses the affinity of chrome azurol S/iron(III)/hexadecyltrimethylamimonium bromide for iron(III). When a strong chelator removes the iron from this dye, its color turns from blue to orange and the absorbance measured at 630 nm is indicative for the chelating properties of a siderophore.

[5] = system: Acinetobacter baumannii ATCC 15473; assay: MIC by standard broth microdilution (CLSI), Acinetobacter baumannii; assay type: cell-based
Experimental: as §1

[6] = system: Pseudomonas aeruginosa ATCC 27853; assay: MIC by standard broth microdilution (CLSI), Pseudomonas aeruginosa; assay type: cell-based
Experimental: as §1

[7] = ATCC25922, EC ATCC 25922, cation-adjusted Mueller Hinton broth (CAMHB), read-out: MIC in CAMHB medium
[8] = ATCC25922, EC ATCC 25922, iron-depleted CAMHB (value in parentheses), read-out: MIC in ID-CAMHB medium
[9] = ATCC43816, KP ATCC 43816, cation-adjusted Mueller Hinton broth (CAMHB), read-out: MIC in CAMHB medium
[10] = ATCC43816, KP ATCC 43816, iron-depleted CAMHB (value in parentheses), read-out: MIC in ID-CAMHB medium
[11] = read-out: MIC in ID-CAMHB medium
[12] = ATCC15473, AB ATCC 15473, cation-adjusted Mueller Hinton broth (CAMHB), read-out: MIC in CAMHB medium
[13] = ATCC15473, AB ATCC 15473, iron-depleted CAMHB (value in parentheses), read-out: MIC in ID-CAMHB medium
[14] = ATCC27853, PA ATCC 27853, cation-adjusted Mueller Hinton broth (CAMHB), read-out: MIC in CAMHB medium
[15] = ATCC27853, PA ATCC 27853, iron-depleted CAMHB (value in parentheses), read-out: MIC in ID-CAMHB medium

SMILES | MIC [1, 7] [µg/mL] | MIC [1, 8] [µg/mL] | MIC [2, 9] [µg/mL] | MIC [2, 10] [µg/mL] | MIC ([3]; read-out: MIC in CAMHB medium) [µg/mL] | MIC [3, 11] [µg/mL] | IC50 [4] [µM] | MIC [5, 12] [µg/mL] | MIC [5, 13] [µg/mL] | MIC [6, 14] [µg/mL] | MIC [6, 15] [µg/mL] | MIC ([3]; BC CF and non-CF isolates, n = 5 (MIC range), CAMHB, read-out: MIC in CAMHB medium) [µg/mL] | iron-chelating activity compared with cefiderocol ([4]; versus the one measured for cefiderocol (table 1))
CC(C)(O/N=C(\C(=O)NC1C(=O)N2C(C(=O)O)=C(C=NO[C@H]3C[C@H](NC(=O)c4ccc(O)c(O)c4Cl)C3)CSC12)c1csc(N)n1)C(=O)O (relative stereo) [Example 7, 7-[[(2Z)-2-(2-aminothiazol-4-yl)-2-(1-carboxy-1-methyl-ethoxy)imino-acetyl]amino]-3-[[3-[(2-chloro-3,4-dihydroxy-benzoyl)amino]- trans-cyclobutoxy]iminomethyl]-8-oxo-5-thia-1-azabicyclo[4.2.0]oct-2-ene-2-carboxylic acid] | 0.5 (≈ 0.677 µM) | 0.5 (≈ 0.677 µM) | 0.12 (≈ 0.163 µM) | 0.5 (≈ 0.677 µM) | 0.03 to 0.12 (≈ 0.0406 to 0.163 µM) | 0.03 to 0.12 (≈ 0.0406 to 0.163 µM) | 4.66 | 2 (≈ 2.71 µM) | 1 (≈ 1.35 µM) | 2 (≈ 2.71 µM) | 1 (≈ 1.35 µM) | – | –
CC(C)(O/N=C(\C(=O)N[C@@H]1C(=O)N2C(C(=O)[O-])=C(C[N+]3(CCNC(=O)c4ccc(O)c(O)c4Cl)CCCC3)CS[C@H]12)c1csc(N)n1)C(=O)O [Cefiderocol, cefiderocol, reference compound] | 0.25 (≈ 0.332 µM) | 0.25 (≈ 0.332 µM) | 2 (≈ 2.66 µM) | 0.5 (≈ 0.665 µM) | ≤ 0.03 | ≤ 0.03 | 68.9 | 0.25 (≈ 0.332 µM) | 0.12 (≈ 0.16 µM) | 1 (≈ 1.33 µM) | 0.5 (≈ 0.665 µM) | – | –
CC(C)(O/N=C(\C(=O)N[C@@H]1C(=O)N2C(C(=O)[O-])=C(C[n+]3ccccc3)CS[C@H]12)c1csc(N)n1)C(=O)O [Ceftazidime, reference compound] | 0.12 (≈ 0.22 µM) | – | 0.12 (≈ 0.22 µM) | – | – | – | > 100 | 4 (≈ 7.32 µM) | – | 2 (≈ 3.66 µM) | – | 4 to 16 (≈ 7.32 to 29.3 µM) | –
Cn1c(N)c(NC(=O)NCCN)c[n+]1CC1=C(C(=O)O)N2C(=O)[C@@H](NC(=O)/C(=N\OC(C)(C)C(=O)[O-])c3nsc(N)n3)[C@H]2SC1 [Ceftolozane, reference compound] | 0.25 (≈ 0.375 µM) | – | 0.25 (≈ 0.375 µM) | – | 2 to 8 (≈ 3 to 12 µM) | – | > 100 | 2 (≈ 3 µM) | – | 0.5 (≈ 0.75 µM) | – | – | –
CC(C)(O/N=C(\C(=O)N[C@@H]1C(=O)N2C(C(=O)O)=C(C=NOCc3cc(=O)c(O)cn3O)CS[C@H]12)c1csc(N)n1)C(=O)O [Example 1, (6R,7R)-7-[[(2Z)-2-(2-aminothiazol-4-yl)-2-(1-carboxy-1-methyl-ethoxy)imino-acetyl]amino]-3-[(1,5-dihydroxy-4-oxo-2-pyridyl)methoxyiminomethyl]-8-oxo-5-thia-1-azabicyclo[4.2.0]oct-2-ene-2-carboxylic acid] | 0.12 (≈ 0.188 µM) | 0.25 (≈ 0.392 µM) | ≤ 0.03 | 0.25 (≈ 0.392 µM) | 0.03 to 0.06 (≈ 0.0471 to 0.0941 µM) | 0.03 to 0.12 (≈ 0.0471 to 0.188 µM) | 7.18 | 2 (≈ 3.14 µM) | 0.5 (≈ 0.784 µM) | 1 (≈ 1.57 µM) | 0.25 (≈ 0.392 µM) | – | –
CC(C)(O/N=C(\C(=O)N[C@@H]1C(=O)N2C(C(=O)O)=C(C=NOCc3cc(=O)c(O)cn3O)CS[C@H]12)c1nsc(N)n1)C(=O)O [Example 2, (6R,7R)-7-[[(2Z)-2-(5-amino-1,2,4-thiadiazol-3-yl)-2-(1-carboxy-1-methyl-ethoxy)imino-acetyl]amino]-3-[(1,5-dihydroxy-4-oxo-2-pyridyl)methoxyiminomethyl]-8-oxo-5-thia-1-azabicyclo[4.2.0]oct-2-ene-2-carboxylic acid] | 0.06 (≈ 0.094 µM) | – | 0.06 (≈ 0.094 µM) | – | 0.03 to 0.5 (≈ 0.047 to 0.783 µM) | 0.03 to 0.5 (≈ 0.047 to 0.783 µM) | 9.56 | 1 (≈ 1.57 µM) | – | 0.5 (≈ 0.783 µM) | 0.12 (≈ 0.188 µM) | – | –
Nc1nc(/C(=N/OCF)C(=O)N[C@@H]2C(=O)N3C(C(=O)O)=C(C=NOCc4cc(=O)c(O)cn4O)CS[C@H]23)ns1 [Example 3, (6R,7R)-7-[[(2Z)-2-(5-amino-1,2,4-thiadiazol-3-yl)-2-(fluoromethoxyimino)acetyl]amino]-3-[(1,5-dihydroxy-4-oxo-2-pyridyl)methoxyiminomethyl]-8-oxo-5-thia-1-azabicyclo[4.2.0]oct-2-ene-2-carboxylic acid] | ≤ 0.03 | ≤ 0.03 | ≤ 0.03 | ≤ 0.03 | – | – | 7.96 | 8 (≈ 13.7 µM) | 16 (≈ 27.4 µM) | 4 (≈ 6.84 µM) | 0.5 (≈ 0.855 µM) | – | –
CC(C)(O/N=C(\C(=O)NC1C(=O)N2C(C(=O)O)=C(C=NOCCNC(=O)c3ccc(O)c(O)c3Cl)CSC12)c1csc(N)n1)C(=O)O (centres unmarked) [Example 4, 7-[[(2Z)-2-(2-aminothiazol-4-yl)-2-(1-carboxy-1-methyl-ethoxy)imino-acetyl]amino]-3-[2-[(2-chloro-3,4-dihydroxy-benzoyl)amino]ethoxyiminomethyl]-8-oxo-5-thia-1-azabicyclo[4.2.0]oct-2-ene-2-carboxylic acid] | 0.25 (≈ 0.351 µM) | 0.25 (≈ 0.351 µM) | 0.06 (≈ 0.0843 µM) | 0.06 (≈ 0.0843 µM) | 0.03 to 0.12 (≈ 0.0421 to 0.169 µM) | 0.03 to 0.06 (≈ 0.0421 to 0.0843 µM) | 4.22 | 4 (≈ 5.62 µM) | 1 (≈ 1.4 µM) | 2 (≈ 2.81 µM) | 0.5 (≈ 0.702 µM) | – | an order of magnitude stronger
Nc1nc(/C(=N/OCF)C(=O)NC2C(=O)N3C(C(=O)O)=C(C=NOCCNC(=O)c4ccc(O)c(O)c4Cl)CSC23)ns1 (centres unmarked) [Example 6, 7-[[(2Z)-2-(5-amino-1,2,4-thiadiazol-3-yl)-2-(fluoromethoxyimino)-acetyl]amino]-3-[2-[(2-chloro-3,4-dihydroxy-benzoyl)amino]ethoxyiminomethyl]-8-oxo-5-thia-1-azabicyclo[4.2.0]oct-2-ene-2-carboxylic acid] | 0.25 (≈ 0.379 µM) | 0.12 (≈ 0.182 µM) | ≤ 0.03 | ≤ 0.03 | – | – | 6.46 | 4 (≈ 6.07 µM) | 4 (≈ 6.07 µM) | 4 (≈ 6.07 µM) | 1 (≈ 1.52 µM) | – | –
CC(C)(O/N=C(\C(=O)NC1C(=O)N2C(C(=O)O)=C(C=NO[C@H]3CCN(C(=O)c4ccc(O)c(O)c4Cl)C3)CSC12)c1csc(N)n1)C(=O)O (stereo partly drawn) [Example 8, 7-[[(2Z)-2-(2-aminothiazol-4-yl)-2-(1-carboxy-1-methyl-ethoxy)imino-acetyl]amino]-3-{[(3S)-1-(2-chloro-3,4-dihydroxy-benzoyl)pyrrolidine-3-yl]oxyiminomethyl}-8-oxo-5-thia-1-azabicyclo[4.2.0]oct-2-ene-2-carboxylic acid] | 0.12 (≈ 0.163 µM) | 0.12 (≈ 0.163 µM) | < 0.03 | < 0.03 | – | – | 5.64 | 0.5 (≈ 0.677 µM) | 0.5 (≈ 0.677 µM) | 1 (≈ 1.35 µM) | 0.25 (≈ 0.339 µM) | – | –
